The record followed here is ChEMBL document CHEMBL3817778, “Small molecules targeting Mcl-1: the search for a silver bullet in cancer therapy” (Medchemcomm, 2016).

Assay [1] concerns the target T1, Induced myeloid leukemia cell differentiation protein Mcl-1 (Homo sapiens, UniProt Q07820). In words: Inhibition of fluorescein-labeled Bid BH3 peptide (79 to 99 residues) binding to His-tagged MCL1 (171 to 327 residues) (unknown origin) expressed in Escherichia coli Bl21(DE3) cells incubated for 3 hrs by fluorescence polarization assay.
The target in assay [2] is T1, Induced myeloid leukemia cell differentiation protein Mcl-1. Put plainly: Inhibition of 5-FAM-labeled Bid BH3 peptide binding to MCL1 (unknown origin) by fluorescence polarization assay. For orientation: Fluorescence polarisation rises when a labelled molecule tumbles more slowly, as on binding a larger partner.
The target is the same in assay [3]. Put plainly: Inhibition of 5-FAM-labeled Bid BH3 peptide binding to MCL1 (unknown origin) at 50 uM by fluorescence polarization assay relative to control.
Assay [4] has as its system MEF. In words: Induction of apoptosis in MEF assessed as dead cells at 10 uM after 24 hrs by Annexin V/propidium iodide staining based method relative to control. The class given is functional, Mus musculus.
Assay [5] concerns MEF. In words: Induction of apoptosis in […] double knock out MEF assessed as dead cells at 10 uM after 24 hrs by Annexin V/propidium iodide staining based method relative to control. The class given is functional, Mus musculus.
Assay [6] deals with T2, Apoptosis regulator Bcl-2 (Homo sapiens, UniProt P10415). Put plainly: Inhibition of FITC-labeled Bid BH3 peptide binding to human GST-tagged BCL2 lacking C-terminal transmembrane domain expressed in Escherichia coli XL-1 Blue cells preincubated for 10 mins followed by FITC-labeled Bid BH3 peptide addition measured after 20 mins by fluorescence polarization assay.
T2 sequence (P10415 whole entry, the tested form may be a part): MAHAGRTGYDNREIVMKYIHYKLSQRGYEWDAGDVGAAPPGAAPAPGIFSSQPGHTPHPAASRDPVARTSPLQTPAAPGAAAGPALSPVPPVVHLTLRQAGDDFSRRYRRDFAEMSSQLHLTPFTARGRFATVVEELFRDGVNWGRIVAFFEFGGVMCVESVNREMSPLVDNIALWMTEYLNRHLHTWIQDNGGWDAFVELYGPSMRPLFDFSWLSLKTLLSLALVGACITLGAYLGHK
Assay [7] has as its target T1, Induced myeloid leukemia cell differentiation protein Mcl-1. Put plainly: Inhibition of FITC-labeled Bid BH3 peptide binding to human GST-tagged MCL1 lacking C-terminal transmembrane domain expressed in Escherichia coli XL-1 Blue cells preincubated for 10 mins followed by FITC-labeled Bid BH3 peptide addition measured after 20 mins by fluorescence polarization assay.

For assay [8] the target is unchanged. In words: Binding affinity to MCL1 (unknown origin) incubated for 30 mins by TR-FRET assay.
Assay [9] deals with Induced myeloid leukemia cell differentiation protein Mcl-1 homolog (Mus musculus, UniProt P97287). Put plainly: Inhibition of biotinylated Bim BH3 peptide binding to recombinant GST-tagged mouse MCL1 with N-terminal truncation of 151 residues and C-terminal truncation of 23 residues expressed in Escherichia coli BL21(DE3) cells preincubated for 1 hr followed by biotinylated Bim BH3 peptide addition measured after 1 hr by ELISA. For orientation: In an ELISA, binding on a coated surface is turned into a signal by an enzyme label.
Induced myeloid leukemia cell differentiation protein Mcl-1 homolog, sequence (P97287 whole entry, the tested form may be a part): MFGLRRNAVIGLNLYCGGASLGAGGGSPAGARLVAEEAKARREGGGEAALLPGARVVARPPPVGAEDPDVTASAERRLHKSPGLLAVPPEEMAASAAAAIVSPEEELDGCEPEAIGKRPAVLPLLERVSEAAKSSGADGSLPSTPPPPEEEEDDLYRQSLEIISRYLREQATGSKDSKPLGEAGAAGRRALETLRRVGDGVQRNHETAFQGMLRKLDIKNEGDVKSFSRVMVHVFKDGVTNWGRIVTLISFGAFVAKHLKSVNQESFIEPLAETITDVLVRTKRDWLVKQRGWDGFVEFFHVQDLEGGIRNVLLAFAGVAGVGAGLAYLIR

The target in a further assay is Bcl-2-like protein 1 (Homo sapiens, UniProt Q07817). In words: Inhibition of FAM-labeled Bim BH3 peptide binding to recombinant human N-terminal GST-tagged Bcl-XL (1 to 212 residues) expressed in Escherichia coli BL21(DE3) cells preincubated for 30 mins followed by FAM-labeled Bim BH3 peptide addition measured after 20 mins by fluorescence polarization assay.
Bcl-2-like protein 1, sequence (Q07817 whole entry, the tested form may be a part): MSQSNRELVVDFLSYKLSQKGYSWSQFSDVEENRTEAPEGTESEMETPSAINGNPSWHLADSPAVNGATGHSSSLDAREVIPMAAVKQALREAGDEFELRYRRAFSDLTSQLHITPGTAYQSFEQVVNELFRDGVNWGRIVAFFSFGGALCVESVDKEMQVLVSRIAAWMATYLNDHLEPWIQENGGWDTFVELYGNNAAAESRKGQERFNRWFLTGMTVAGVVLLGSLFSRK
Assay [10] is described as follows: Inhibition of FAM-labeled Bid BH3 peptide binding to recombinant N-terminal His8-tagged human MCL1 (209 to 327 residues)/mouse MCL1 (152 to189 residues) expressed in Escherichia coli BL21(DE3) cells preincubated for 30 mins followed by FAM-labeled Bid BH3 peptide addition measured after 20 mins by fluorescence polarization assay.
Assay [11] addresses T2, Apoptosis regulator Bcl-2. In words: Inhibition of FAM-labeled Bid BH3 peptide binding to recombinant human N-terminal GST-tagged BCL2 (1 to 34/ 92 to 207 residues) fused with human Bcl-XL expressed in Escherichia coli BL21(DE3) cells preincubated for 30 mins followed by FAM-labeled Bid BH3 peptide addition measured after 20 mins by fluorescence polarization assay.
The nature of assay [12]: Inhibition of FITC-labeled Bid BH3 peptide binding to GST-tagged MCL1 harboring N-terminal and C-terminal point mutant (unknown origin) expressed in Escherichia coli Bl21(DE3) cells by fluorescence polarization assay. Further details: species or system Homo sapiens.
For assay [13], the target named is T1, Induced myeloid leukemia cell differentiation protein Mcl-1. Put plainly: Inhibition of biotinylated Bim BH3 peptide binding to GST-tagged MCL1 (unknown origin) preincubated for 15 mins followed by biotinylated Bim BH3 peptide addition measured after 2 hrs by ELISA.
Assay [14] deals with T2, Apoptosis regulator Bcl-2. In words: Inhibition of FITC-labeled Bim BH3 peptide binding to GST-tagged BCL2 (unknown origin) preincubated for 2 mins followed by FITC-labeled Bim BH3 peptide addition measured after 10 mins by fluorescence polarization assay.
Assay [15] has as its target T1, Induced myeloid leukemia cell differentiation protein Mcl-1. In words: Inhibition of FAM-labeled Bid BH3 peptide binding to human recombinant MCL1 by fluorescence polarization assay relative to control.
Assay [16] addresses T2, Apoptosis regulator Bcl-2. Put plainly: Inhibition of FAM-labeled Bid BH3 peptide binding to human recombinant BCL2 by fluorescence polarization assay relative to control.

pIC50, pKi: −log10 of the molar value. Where only a bound is given, the exact number is not on record here.

T1 sequence (Q07820 whole entry, the tested form may be a part): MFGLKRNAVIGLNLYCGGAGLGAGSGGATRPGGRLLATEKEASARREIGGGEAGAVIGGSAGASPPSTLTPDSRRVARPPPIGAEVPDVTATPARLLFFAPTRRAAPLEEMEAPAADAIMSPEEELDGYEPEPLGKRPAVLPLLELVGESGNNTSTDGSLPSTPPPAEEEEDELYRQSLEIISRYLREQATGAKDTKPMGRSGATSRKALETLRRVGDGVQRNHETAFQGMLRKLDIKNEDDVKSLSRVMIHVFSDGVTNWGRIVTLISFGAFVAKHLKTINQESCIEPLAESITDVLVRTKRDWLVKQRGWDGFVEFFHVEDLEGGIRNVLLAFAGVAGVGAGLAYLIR

Take `O=C(O)CSc1cc(NS(=O)(=O)c2ccc(Oc3ccc(F)cc3)cc2)c2ccccc2c1O`: the pIC50 in assay [1] was 6.77. In turn, `O=C(Cc1cc(O)c(O)c(O)c1)NCc1ccc(C(=O)N2CCN(Cc3ccccc3-c3ccccc3)CC2)cc1` had a pKi in [2] of 6.74. The compound further gave an inhibition in assay [3] of 66%. As to `O=C(O)CSc1cc(NS(=O)(=O)c2ccc(Br)cc2)c2ccccc2c1O`, the Activity in the assay with MEF [4] stood at 60%; in the assay with MEF [5], 16%. Further, the negative-log Ki (pKi) in [1] is 5.73. For the compound `COC1=CC(c2cc3ccccc3[nH]2)=N/C1=C\c1[nH]c(C)cc1C` [OBATOCLAX], the pIC50 was 5.95 in [6] and 5.54 in assay [7].

Consider `CC1(C)CCC(CN2CCN(c3ccc(C(=O)NS(=O)(=O)c4ccc(NCC5CCOCC5)c([N+](=O)[O-])c4)c(Oc4cnc5[nH]ccc5c4)c3)CC2)=C(c2ccc(Cl)cc2)C1` [VENETOCLAX], for which the negative logarithm of the Ki (pKi) in assay [8] was below 6.35. Consider `O=C(O)CSc1cc(NS(=O)(=O)c2ccc(-c3ccc(F)cc3F)cc2)c2ccccc2c1O`, for which, in [1], the negative logarithm of the IC50 (pIC50) was 6.77. On to `O=C(c1ccccc1O)c1[nH]c(Cl)c(Cl)c1-n1c(C(=O)c2ccccc2O)cc(Cl)c1Cl`, for which, in assay [9], the negative logarithm of the IC50 (pIC50) is 5.00. Turning to `O=C(O)CSc1cc(NS(=O)(=O)c2ccc(-c3ccc(Cl)cc3)cc2)c2ccccc2c1O`, the pIC50 in assay [1] was 6.77. Consider `CCOC(=O)C1=C(C)N=c2s/c(=C\c3cn(Cc4ccc(-c5ccccc5)cc4)c4ccccc34)c(=O)n2C1c1ccccc1` (stereo not given), for which the negative logarithm of the Ki (pKi) at Bcl-2-like protein 1 is 7.77; in assay [10] it was 6.70; in assay [11], 6.28. Compound `Cc1cs/c(=N\C2CCCCC2)n1/N=C/c1ccc(O)c(O)c1O` had a negative-log IC50 (pIC50) in [12] of 5.32.

Take `O=C1c2ccc(OS(=O)(=O)C(F)(F)F)cc2Oc2c(Cl)cc(C(=O)c3ccccc3O)n2-c2c1[nH]c(Cl)c2Cl`: in assay [13], the negative logarithm of the IC50 (pIC50) was 5.85. In the case of `Cc1cc2c(C(C)C)c(O)c(O)cc2c(O)c1-c1c(C)cc2c(C(C)C)c(O)c(O)cc2c1O` [APOGOSSYPOL], in [14], the pKi was 5.55.

In the case of `CC(C)c1ccccc1Cc1cc(C(=O)Nc2ccc(S(=O)(=O)c3ccccc3C(C)(C)C)cc2)c(O)c(O)c1O`, the pKi in [15] and in assay [16] was above 6.52 throughout.

As usually defined, the pIC50 is the IC50 on a negative log10 scale, so that one unit is a factor of ten. In general, pKi refers to −log10 of the Ki, conventionally taken in molar units. The inhibition is the percentage by which the read-out fell short of the control. Read a high inhibition as a response far below the control.
